From patent US20250101041A1, “POSITIVE ALLOSTERIC MODULATORS OF THE MUSCARINIC ACETYLCHOLINE RECEPTOR M4” (Vanderbilt University, priority 2022, published 2025)

Target: T1, human mAChR M4 (Homo sapiens, UniProt P08173)
T1 construct: expressed in transfected cells; host or cells: CHO-K1 (American Type Culture Collection), stably expressing hM4 and Gqi5
T1 sequence (P08173 1-479): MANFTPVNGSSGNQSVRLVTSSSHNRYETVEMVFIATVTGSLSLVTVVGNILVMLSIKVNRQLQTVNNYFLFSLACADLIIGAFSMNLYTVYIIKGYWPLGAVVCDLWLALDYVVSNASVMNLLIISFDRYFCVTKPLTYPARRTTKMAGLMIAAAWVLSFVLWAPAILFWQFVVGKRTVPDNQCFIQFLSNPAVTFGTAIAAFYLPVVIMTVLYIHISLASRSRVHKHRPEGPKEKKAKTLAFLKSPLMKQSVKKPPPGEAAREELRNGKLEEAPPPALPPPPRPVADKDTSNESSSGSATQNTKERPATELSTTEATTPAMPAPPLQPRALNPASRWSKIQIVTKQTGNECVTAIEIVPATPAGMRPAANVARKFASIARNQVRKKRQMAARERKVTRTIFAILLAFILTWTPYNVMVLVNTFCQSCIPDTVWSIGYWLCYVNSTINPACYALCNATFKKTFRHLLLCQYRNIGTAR
Experiment: mAChR M4 cell-based functional assay: calcium mobilization (Fluo-4, FDSS), potentiation of EC20 acetylcholine response in hM4-Gqi5 CHO-K1 cells
Settings: human M4; for Emax at 30 µM: CHO-K1, % ACh maximum at 30 μM; for EC50: potentiation of EC20 acetylcholine response, calcium mobilization
How it was run: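 Readout is the fluorescence-ratio rise at 1 Hz on FDSS, with PAM activity taken as concentration-dependent enhancement of the EC20 acetylcholine response, fitted four-parameter for EC50/Emax. hM4-Gqi5 CHO-K1 cells carried Fluo-4 AM dye; test compounds (11 points, 1:3) preceded EC20 acetylcholine additions at 144 s and 230 s.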

| Structure (SMILES) | Emax at 30 µM [%] | EC50 [nM] |
| --- | --- | --- |
| Cc1cc(=O)n2nc(N3CCc4ncc(-c5ccccc5C)cc4C3)c(C)c(C)c2n1 [Compound 1-137, 2,8,9-trimethyl-7-(3-(o-tolyl)-7,8-dihydro-1,6-naphthyridin-6(5H)-yl)-4H-pyrimido[1,2-b]pyridazin-4-one] | 109 | 1730 |
| Cc1cc(=O)n2nc(N3CCc4ncc(-c5cc(F)ccc5C)cc4C3)c(C)c(C)c2n1 [Compound 1-138, 7-(3-(5-fluoro-2-methylphenyl)-7,8-dihydro-1,6-naphthyridin-6(5H)-yl)-2,8,9-trimethyl-4H-pyrimido[1,2-b]pyridazin-4-one] | 87 | 190 |
| COc1cc(C)c(-c2cnc3c(c2)CN(c2nn4c(=O)ccnc4c(C)c2C)CC3)cn1 [Compound 1-139, 7-(3-(6-methoxy-4-methylpyridin-3-yl)-7,8-dihydro-1,6-naphthyridin-6(5H)-yl)-8,9-dimethyl-4H-pyrimido[1,2-b]pyridazin-4-one] | 98 | 77 |
| COc1ccncc1-c1cnc2c(c1)CN(c1nn3c(=O)ccnc3c(C)c1C)CC2 [Compound 1-140, 7-(3-(4-methoxypyridin-3-yl)-7,8-dihydro-1,6-naphthyridin-6(5H)-yl)-8,9-dimethyl-4H-pyrimido[1,2-b]pyridazin-4-one] | 89 | 360 |
| Cc1c(N2CCc3ncc(-c4ccnnc4)cc3C2)nn2c(=O)ccnc2c1C [Compound 1-141, 8,9-dimethyl-7-(3-(pyridazin-4-yl)-7,8-dihydro-1,6-naphthyridin-6(5H)-yl)-4H-pyrimido[1,2-b]pyridazin-4-one] | 96 | 410 |
| Cc1c(N2CCc3ncc(-c4cnccc4C(F)(F)F)cc3C2)nn2c(=O)ccnc2c1C [Compound 1-142, 8,9-dimethyl-7-(3-(4-(trifluoromethyl)pyridin-3-yl)-7,8-dihydro-naphthyridin-6(5H)-yl)-4H-pyrimido[1,2-b]pyridazin-4-one] | 53 | 371 |
| Cc1ccc(-c2cnc3c(c2)CN(c2nn4c(=O)ccnc4c(C)c2C)CC3)cc1F [Compound 1-143, 7-(3-(3-fluoro-4-methylphenyl)-7,8-dihydro-1,6-naphthyridin-6(5H)-yl)-8,9-dimethyl-4H-pyrimido[1,2-b]pyridazin-4-one] | 102 | 416 |
| Cc1c(N2CCc3ncc(-c4cncc(Cl)c4)cc3C2)nn2c(=O)ccnc2c1C [Compound 1-144, 7-(3-(5-chloropyridin-3-yl)-7,8-dihydro-1,6-naphthyridin-6(5H)-yl)-8,9-dimethyl-4H-pyrimido[1,2-b]pyridazin-4-one] | 82 | 246 |
| Cc1c(N2CCc3ncc(-c4cnccc4Cl)cc3C2)nn2c(=O)ccnc2c1C [Compound 1-145, 7-(3-(4-chloropyridin-3-yl)-7,8-dihydro-1,6-naphthyridin-6(5H)-yl)-8,9-dimethyl-4H-pyrimido[1,2-b]pyridazin-4-one] | 88 | 122 |
| Cc1c(N2CCc3ncc(-c4cnc(Cl)c(F)c4)cc3C2)nn2c(=O)ccnc2c1C [Compound 1-146, 7-(3-(6-chloro-5-fluoropyridin-3-yl)-7,8-dihydro-1,6-naphthyridin-6(5H)-yl)-8,9-dimethyl-4H-pyrimido[1,2-b]pyridazin-4-one] | 86 | 399 |
| Cc1cncc(-c2cnc3c(c2)CN(c2nn4c(=O)ccnc4c(C)c2C)CC3)c1 [Compound 1-147, 8,9-dimethyl-7-(3-(5-methylpyridin-3-yl)-7,8-dihydro-1,6-naphthyridin-6(5H)-yl)-4H-pyrimido[1,2-b]pyridazin-4-one] | 80 | 305 |
| Cc1c(N2CCc3ncc(-c4cccnc4)cc3C2)nn2c(=O)ccnc2c1C [Compound 1-148, 8,9-dimethyl-7-(3-(pyridin-3-yl)-7,8-dihydro-1,6-naphthyridin-6(5H)-yl)-4H-pyrimido[1,2-b]pyridazin-4-one] | 89 | 344 |
| Cc1cc(F)ncc1-c1cnc2c(c1)CN(c1nn3c(=O)ccnc3c(C)c1C)CC2 [Compound 1-149, 7-(3-(6-Fluoro-4-methylpyridin-3-yl)-7,8-dihydro-1,6-naphthyridin-6(5H)-yl)-8,9-dimethyl-4H-pyrimido[1,2-b]pyridazin-4-one] | 89 | 68 |
| Cc1c(N2CCc3ncc(-c4cnn(C5CCCCO5)c4)cc3C2)nn2c(=O)ccnc2c1C (stereo not shown) [Compound 1-150, 8,9-dimethyl-7-(3-(1-(tetrahydro-2H-pyran-2-yl)-1H-pyrazol-4-yl)-7,8-dihydro-1,6-naphthyridin-6(5H)-yl)-4H-pyrimido[1,2-b]pyridazin-4-one] | 74 | 511 |
| Cc1c(N2CCc3ncc(-c4ccnn4C4COC4)cc3C2)nn2c(=O)ccnc2c1C [Compound 1-151, 8,9-dimethyl-7-(3-(1-(oxetan-3-yl)-1H-pyrazol-5-yl)-7,8-dihydro-1,6-naphthyridin-6(5H)-yl)-4H-pyrimido[1,2-b]pyridazin-4-one] | 75 | 3210 |
| Cc1c(N2CCc3ncc(-c4cnn(C5CC5)c4)cc3C2)nn2c(=O)ccnc2c1C [Compound 1-152, 7-(3-(1-cyclopropyl-1H-pyrazol-4-yl)-7,8-dihydro-1,6-naphthyridin-6(5H)-yl)-8,9-dimethyl-4H-pyrimido[1,2-b]pyridazin-4-one] | 80 | 133 |
| Cc1c(N2CCc3ncc(-c4cnn(-c5ccccn5)c4)cc3C2)nn2c(=O)ccnc2c1C [Compound 1-153, 8,9-dimethyl-7-(3-(1-(pyridin-2-yl)-1H-pyrazol-4-yl)-7,8-dihydro-1,6-naphthyridin-6(5H)-yl)-4H-pyrimido[1,2-b]pyridazin-4-one] | 67 | 584 |
| Cc1c(N2CCc3ncc(-c4cncc(C(F)(F)F)c4)cc3C2)nn2c(=O)cc(C(F)F)nc2c1C [Compound 1-154, 2-(difluoromethyl)-8,9-dimethyl-7-(3-(5-(trifluoromethyl)pyridin-3-yl)-7,8-dihydro-1,6-naphthyridin-6(5H)-yl)-4H-pyrimido[1,2-b]pyridazin-4-one] | 80 | 401 |
| Cc1c(N2CCc3ncc(-c4cccnc4)cc3C2)nn2c(=O)cc(C(F)F)nc2c1C [Compound 1-155, 2-(difluoromethyl)-8,9-dimethyl-7-(3-(pyridin-3-yl)-7,8-dihydro-1,6-naphthyridin-6(5H)-yl)-4H-pyrimido[1,2-b]pyridazin-4-one] | 91 | 62 |
| Cc1c(N2CCc3ncc(-c4cncc(F)c4)cc3C2)nn2c(=O)cc(C(F)F)nc2c1C [Compound 1-156, 2-(difluoromethyl)-7-(3-(5-fluoropyridin-3-yl)-7,8-dihydro-1,6-naphthyridin-6(5H)-yl)-8,9-dimethyl-4H-pyrimido[1,2-b]pyridazin-4-one] | 95 | 204 |
| Cc1c(N2CCc3ncc(-c4cncc(C#N)c4)cc3C2)nn2c(=O)cc(C(F)F)nc2c1C [Compound 1-157, 5-(6-(2-(difluoromethyl)-8,9-dimethyl-4-oxo-4H-pyrimido[1,2-b]pyridazin-7-yl)-5,6,7,8-tetrahydro-1,6-naphthyridin-3-yl)nicotinonitrile] | 100 | 426 |
| Cc1c(N2CCc3ncc(-c4ccnnc4)cc3C2)nn2c(=O)cc(C(F)F)nc2c1C [Compound 1-158, 2-(difluoromethyl)-8,9-dimethyl-7-(3-(pyridazin-4-yl)-7,8-dihydro-1,6-naphthyridin-6(5H)-yl)-4H-pyrimido[1,2-b]pyridazin-4-one] | 94 | 251 |
| Cc1c(N2CCc3ncc(-c4cncnc4)cc3C2)nn2c(=O)cc(C(F)F)nc2c1C [Compound 1-159, 2-(difluoromethyl)-8,9-dimethyl-7-(3-(pyrimidin-5-yl)-7,8-dihydro-1,6-naphthyridin-6(5H)-yl)-4H-pyrimido[1,2-b]pyridazin-4-one] | 86 | 3060 |
| Cc1c(N2CCc3ncc(-c4cncc(Cl)c4)cc3C2)nn2c(=O)cc(C(F)F)nc2c1C [Compound 1-160, 7-(3-(5-chloropyridin-3-yl)-7,8-dihydro-1,6-naphthyridin-6(5H)-yl)-2-(difluoromethyl)-8,9-dimethyl-4H-pyrimido[1,2-b]pyridazin-4-one] | 82 | 547 |
| Cc1ccncc1-c1cnc2c(c1)CN(c1nn3c(=O)cc(C(F)F)nc3c(C)c1C)CC2 [Compound 1-161, 2-(difluoromethyl)-8,9-dimethyl-7-(3-(4-methylpyridin-3-yl)-7,8-dihydro-1,6-naphthyridin-6(5H)-yl)-4H-pyrimido[1,2-b]pyridazin-4-one] | 76 | 92 |
| Cc1cc2nccn2cc1-c1cnc2c(c1)CN(c1nn3c(=O)cc(C(F)F)nc3c(C)c1C)CC2 [Compound 1-162, 2-(difluoromethyl)-8,9-dimethyl-7-(3-(7-methylimidazo[1,2-a]pyridin-6-yl)-7,8-dihydro-1,6-naphthyridin-6(5H)-yl)-4H-pyrimido[1,2-b]pyridazin-4-one] | 71 | 520 |
